Data taken from ChEMBL document CHEMBL1148542, “Synthesis of a novel biotin-tagged photoaffinity probe for VEGF receptor tyrosine kinases” (Bioorg Med Chem Lett, 2006).

Legend:
[1] = target: Vascular endothelial growth factor receptor (Homo sapiens, UniProt P17948+P35916+P35968); experiment: Inhibitory activity against VEGF-stimulated proliferation in HUVEC; format: functional
[2] = target: Vascular endothelial growth factor receptor 2 (Homo sapiens, UniProt P35968); experiment: Inhibitory activity against VEGFR2 kinase
Sequence of Vascular endothelial growth factor receptor 2 (P35968 whole entry): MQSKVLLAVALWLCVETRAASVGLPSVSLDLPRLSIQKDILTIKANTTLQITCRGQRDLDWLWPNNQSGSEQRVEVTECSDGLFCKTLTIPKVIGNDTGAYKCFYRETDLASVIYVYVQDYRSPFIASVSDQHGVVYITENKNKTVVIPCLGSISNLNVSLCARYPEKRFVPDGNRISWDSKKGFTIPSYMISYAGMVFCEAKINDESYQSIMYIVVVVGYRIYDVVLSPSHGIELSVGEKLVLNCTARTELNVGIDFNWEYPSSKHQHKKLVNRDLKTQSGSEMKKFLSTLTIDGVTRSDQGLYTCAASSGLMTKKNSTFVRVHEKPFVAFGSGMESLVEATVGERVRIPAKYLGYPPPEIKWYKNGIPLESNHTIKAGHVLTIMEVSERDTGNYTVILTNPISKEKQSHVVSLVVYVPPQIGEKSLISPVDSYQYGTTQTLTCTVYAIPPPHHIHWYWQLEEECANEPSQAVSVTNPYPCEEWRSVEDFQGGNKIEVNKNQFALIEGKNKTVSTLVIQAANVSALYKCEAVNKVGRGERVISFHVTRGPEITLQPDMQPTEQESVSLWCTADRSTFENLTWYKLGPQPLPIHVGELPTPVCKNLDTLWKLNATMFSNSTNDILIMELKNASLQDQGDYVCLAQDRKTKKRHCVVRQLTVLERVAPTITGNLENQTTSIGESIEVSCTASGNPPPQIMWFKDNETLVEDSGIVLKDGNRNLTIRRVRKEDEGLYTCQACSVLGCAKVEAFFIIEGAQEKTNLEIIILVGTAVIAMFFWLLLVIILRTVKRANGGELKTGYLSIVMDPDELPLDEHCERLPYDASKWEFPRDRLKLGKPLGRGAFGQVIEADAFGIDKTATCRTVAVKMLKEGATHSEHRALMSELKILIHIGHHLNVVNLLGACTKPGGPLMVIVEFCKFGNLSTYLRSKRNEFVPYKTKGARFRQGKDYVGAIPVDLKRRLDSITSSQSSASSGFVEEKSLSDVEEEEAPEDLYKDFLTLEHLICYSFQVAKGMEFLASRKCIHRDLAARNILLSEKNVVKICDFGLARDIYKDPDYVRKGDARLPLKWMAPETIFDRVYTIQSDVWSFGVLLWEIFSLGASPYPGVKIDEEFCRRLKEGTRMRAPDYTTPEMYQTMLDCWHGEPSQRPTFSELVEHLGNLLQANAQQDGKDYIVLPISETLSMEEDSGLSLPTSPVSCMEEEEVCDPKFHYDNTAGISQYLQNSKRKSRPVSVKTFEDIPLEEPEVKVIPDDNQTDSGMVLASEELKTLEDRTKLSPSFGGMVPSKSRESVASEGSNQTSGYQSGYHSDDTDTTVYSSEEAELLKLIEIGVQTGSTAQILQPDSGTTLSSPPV

| Compound | IC50 [1] | IC50 [2] |
| --- | --- | --- |
| COc1cc2c(Nc3ccc(Cl)cc3F)ncnc2cc1OCCNC(=O)c1c(F)c(F)c(N=[N+]=[N-])c(F)c1F | 4.1 µM | < 1 µM |
| COc1cc2ncnc(Nc3ccc(Cl)cc3F)c2cc1OC |  | 1.5 µM |

More lines, now with the values ahead:

| IC50 [1] | IC50 [2] | Compound |
| --- | --- | --- |
| 1.9 µM | 1.5 µM | COc1cc2c(Nc3ccc(Cl)cc3F)ncnc2cc1OCCOCCNC(=O)CCCCC1SCC2NC(=O)NC21 (stereo unspecified) |
| 3.2 µM | < 1 µM | COc1cc2c(Nc3ccc(Cl)cc3F)ncnc2cc1OCCOCCNC(=O)c1c(F)c(F)c(N=[N+]=[N-])c(F)c1F |
| 40.3 µM | 7.1 µM | COc1cc2c(Nc3ccc(Cl)cc3F)ncnc2cc1OCCOCCNC(=O)C(CCCCNC(=O)CCCCC1SCC2NC(=O)NC21)NC(=O)c1c(F)c(F)c(N=[N+]=[N-])c(F)c1F (stereo unspecified) |
| 14.7 µM | 4.8 µM | COc1cc2c(Nc3ccc(Cl)cc3F)ncnc2cc1OCCNC(=O)CCCCC1SCC2NC(=O)NC21 (stereo unspecified) |
